The test system of data set [1] is autoimmune disease (systemic lupus erythematosus). Put plainly: autoimmune disease (systemic lupus erythematosus), immunoglobulin determinations, female NZB/W mice. It counts as in vivo, female NZB/W F1 mice. To be noted: A 100 mg/kg, levamisole 25 mg/kg, i.p. twice weekly. The method, then: (§1) The effect of the compounds of the invention on the development and progress of autoimmune disease (systemic lupus erythematosus) in the New Zealand F1 hydrid mouse (NZB×NZW) is evaluated. NZB/W F1 mice are divided into two groups according to sex. […] IgG, IgM and antinuclear antibody determinations are made on pooled samples of serum obtained by capillary bleedings of the suborbital sinus at approximately monthly intervals. The compounds of the invention are suspended in a solution of physiological saline with 0.16% CMC. All dosing is twice weekly intraperitonially. […] Immunoglobulin values from serum samples are compared with the baseline (pretreatment) for each group.

Data set [2] shares this test system. Nature of the data set: autoimmune disease (systemic lupus erythematosus), immunoglobulin determinations, male NZB/W mice. It counts as in vivo, male NZB/W F1 mice. To be noted: A 100 mg/kg, levamisole 25 mg/kg, i.p. twice weekly. The method, then: as §1
For data set [3], the system named is antibody-secreting plaque-forming splenocytes (IgG and IgM). Nature of the data set: Cunningham modification of the Jerne assay (hemolytic plaque technique), IgM and IgG plaques per spleen. It counts as in vivo, CDF1 (Balb/c × DBA/2) mice. Conditions: Table 2, 200 mg/kg. The method, then: In this example, the compounds of the invention are tested for their effect on antibody-secreting plaque-forming splenocytes (IgG and IgM) in the Cunningham modification of the Jerne assay. This technique is able to detect, in a quantitative manner, antibody producing cells in response to antigen stimulus in the host mouse. For study of […] immune response, sheep erythrocytes (SRBC) are used (as in the present Example), while for humoral immune response, SRBC coupled with pneumococcal polysaccharide is used.
CDF1 (Balb/c × DBA/2) mice are immunized with 0.1 ml. of 10^8 sheep erythrocytes (SRBC) intraperitonially 4-5 days before the assay. The mice are separated into groups, with one group serving as a control and all other groups receiving compounds of the invention. The treated mice are dosed with drug on day one. […] The spleens of the sacrificed mice are excised and washed several times in RPMI 1640 with 10% fetal bovine serum. 100 λ of spleen cells are mixed with a drop of guinea pig complement, four drops of RPMI 1640 and a drop of 25% SRBC in a microtiter plate well and then pipetted into a Cunningham chamber. On day four, for IgM determinations, the chambers are incubated for 30 minutes at 37° C. Antibody, released by the small proportion of active cells, attaches to the surrounding erythrocytes which are lysed by complement leaving a small plaque up to 0.5 mm. in diameter. Since only cells releasing IgM antibody form plaques directly, a "developing" serum must be added to be able to form and view IgG plaques. Thus fifth or sixth day cultured spleen cells are further treated with rabbit antimouse IgG and then incubated for 45 minutes. Both IgM and IgG plaques are counted under a stereomicroscope.
In Table 1 are given the IgM and IgG plaque counts per spleen for mice treated with 6-chloro-2-phenylthiazolo[2,3-b]benzothiazol-3(2H)-one mesoionic didehydro derivative and for the controls:
The assay is repeated using the following compounds of the invention: 2-phenylthiazolo[2,3-b]benzothiazol-3(2H)-one mesoionic didehydro derivative (A), 6-chloro-2-(p-chlorophenyl)-thiazolo[2,3-b]benzothiazol-3(2H)-one mesoionic didehydro derivative (B) and 6-chloro-2-phenylthiazolo[2,3-b]benzothiazol-3(2H)-one mesoionic didehydro derivative (C).

Data set [4] concerns thymus gland. Nature of the data set: effect on the thymus gland (thymus weight). It counts as in vivo, BDF1 mice. Conditions: Table 4. The method, then:
The effect of the compounds of the invention on the thymus gland is measured. BDF1 mice of 18-20 gms. weight are dosed at 150 mg/kg. with 6-chloro-2-phenylthiazolo[2,3-b]benzothiazolo-3(2H)-one mesoionic didehydro derivative for eight consecutive days. The mice are sacrificed on the ninth day, the thymus glands excised and weighed. The excised thymus glands averaged […]. as compared to […]. for the control group. […] The weight loss is also correlated to dose, and the results are as follows:
Using the same technique, the following compounds of the invention were tested: 6-chloro-2-(p-chlorophenyl)thiazolo[2,3-b]benzothiazol-3(2H)-one mesoionic didehydro derivative (A), 2-phenyl-5,6,7,8-tetrahydrothiazolo[2,3-b]benzothiazol-3(2H)-one mesoionic didehydro derivative (B), 2-phenylthiazolo[2,3-b]-benzothiazol-3(2H)-one mesoionic didehydro derivative (C),6-chloro-2-trifluoroacetylthiazolo[2,3-b]benzothiazol-3(2H)-one mesoionic didehydro derivative (D), 6-chloro-3-hydroxy-2-phenylthiazolo[2,3-b]benzothiazolium bromide (E), 7-ethoxy-3-hydroxy-2-phenylthiazolo[2,3-b]benzothiazolium bromide (F), 3-hydroxy-2-phenylthiazolo[2,3-b]benzothiazolium bromide (G), and 3-hydroxy-2-phenyl-5,6,7,8-tetrahydrothiazolo[2,3-b]benzothiazolium bromide (H).

The subject of data set [5] is hemolytic anemia. Nature of the data set: autoimmune hemolytic anemia model, serum immunoglobulins. Format: in vivo, NZB mice. Further details: IgM, Baseline: unit not given beside the values. To be noted: for ANA (antinuclear antibody), 1st Reading / IgG, 1st Reading / IgM, 1st Reading: 1st Reading (156 Days); for ANA (antinuclear antibody), 1st Reading / IgG, 1st Reading / IgM, 1st Reading / IgG, % Change / IgM, % Change: 200 mg/kg, four doses over two weeks; for IgG, % Change / IgM, % Change: 142 to 156 Days. An excerpt:
NZB/W F1 mice are divided into two groups according to sex. At the initiation of drug treatment, female mice are 78.2 days old with an average weight of 30 g., while male mice are 69.5 days old with an average weight of 40 g. IgG, IgM and antinuclear antibody determinations are made on pooled samples of serum obtained by capillary bleedings of the suborbital sinus at approximately monthly intervals. The compounds of the invention are suspended in a solution of physiological saline with 0.16% CMC. All dosing is twice weekly intraperitonially.
Another autoimmune disease model, hemolytic anemia, is used to further evaluate the compounds of the invention. Thus, NZB mice, having an average age of 142 days and with well advanced hemolytic anemia, are divided into treatment groups and are dosed biweekly over a period of two weeks (four doses total) with the following compounds in the same manner as previously described: 6-chloro-2-(p-chlorophenyl)thiazolo[2,3-b]benzothiazol-3(2H)-one mesoionic didehydro derivative (A), 2-phenyl-5,6,7,8-tetrahydrothiazolo[2,3-b]benzothiazol-3(2H)-one mesoionic didehydro derivative (B), 2-phenylthiazolo[2,3-b]benzothiazol-3(2H)-one mesoionic didehydro derivative (C) and 6-chloro-2-trifluoroacetylthiazolo[2,3-b]benzothiazol-3(2H)-one mesoionic didehydro derivative (D). The immunoglobulin values from serum samples are compared with the baseline (pretreatment) for each group and the results are summarized in Table 10: […]

Data set [6] deals with delayed hypersensitivity reaction. Nature of the data set: guinea pig delayed hypersensitivity assay (PPD). It counts as in vivo, Male Hartley strain guinea pigs. To be noted: 50 mg/kg orally, read 24 hours after challenge, * = p < 0.05.
Setting [7] is: Baseline (142 Days), 200 mg/kg group.

With `c1ccc([C@H]2CN3CCSC3=N2)cc1` [Levamisole, L-(-)-2,3,5,6-tetrahydro-6-phenylimidazo[2,1-b]thiazole, reference compound], the IgG level in data set [1] (47 Days) worked out at 404 mg./100 ml; in data set [1] (76 Days), 490 mg./100 ml; in data set [1] (111 Days), 980 mg./100 ml; in data set [1] (154 Days) it was 900 mg./100 ml; in data set [1] (Pretreatment), 460 mg./100 ml; in data set [2] (47 Days), 560 mg./100 ml. For the same compound, the IgG level in data set [2] (76 Days) stood at 710 mg./100 ml; in data set [2] (111 Days) it was 710 mg./100 ml; in data set [2] (154 Days), 910 mg./100 ml; in data set [2] (Pretreatment), 450 mg./100 ml. The IgM level in data set [1] (47 Days) turned out to be 49 mg./100 ml; in data set [1] (76 Days), 83 mg./100 ml; in data set [1] (111 Days), 136 mg./100 ml; in data set [1] (154 Days) it was 154 mg./100 ml; in data set [1] (Pretreatment), 64 mg./100 ml; in data set [2] (47 Days) it was 68 mg./100 ml. The IgM level came out at 140 mg./100 ml in data set [2] (76 Days), 128 mg./100 ml in data set [2] (111 Days), 142 mg./100 ml in data set [2] (154 Days) and 43.5 mg./100 ml in data set [2] (Pretreatment). Also, the results for the “IgG Total Change From Baseline” value in data set [1] and in data set [2] were “+440 mg./100 ml” and “+460 mg./100 ml”, respectively. For the same compound, the “IgM Total Change From Baseline” value in data set [1] is “+90 mg./100 ml”; in data set [2], “+98.5 mg./100 ml”.
Turning to `[O-]c1c(-c2ccc(Cl)cc2)sc2sc3ccc(Cl)cc3[n+]12` [B], in data set [3] (Day 4), the “IgG, mean (total number of plaques per spleen)” value was 9,656 plaques per spleen and the “IgM, mean (total number of plaques per spleen)” value was 74,025 plaques per spleen. In addition, in data set [3] (Day 5), the “IgG, mean (total number of plaques per spleen)” value is 49,218 plaques per spleen and the “IgM, mean (total number of plaques per spleen)” value was 50,250 plaques per spleen. Further, in data set [4] (200 mg/kg), the “% Change in weight (thymus gland)” value is listed as -53% and the “Avg. weight of thymus gland” value is 18.6 mg. Besides, in data set [5], the “ANA (antinuclear antibody), 1st Reading” value is reported as “neg”; the “IgG, 1st Reading” value stood at 304; the “IgM, 1st Reading” value was found to be 120; the “IgG, % Change” value is reported as -60%. In data set [5], the “IgM, % Change” value is on record as -32%. Moreover, in data set [5] (setting [7]), the “IgG, Baseline” value is reported as 760 and the “IgM, Baseline” value is recorded as 176.
Regarding `Oc1c(-c2ccccc2)sc2sc3c([n+]12)CCCC3` [H], in data set [4] (75 mg/kg), the “% Change in weight (thymus gland)” value is “+2%” and the “Avg. weight of thymus gland” value was determined as 40.5 mg.
For the compound `O=C(c1sc2sc3ccc(Cl)cc3[n+]2c1[O-])C(F)(F)F` [D], in data set [4] (200 mg/kg), the “% Change in weight (thymus gland)” value is on record as -28% and the “Avg. weight of thymus gland” value was 28.4 mg. Further, in data set [5], the “IgG, 1st Reading” value stood at 770; the “IgM, 1st Reading” value was determined as 190; the “IgG, % Change” value is on record as “+8%”; the “IgM, % Change” value is recorded as “+4%”. Also, in data set [5] (setting [7]), the “IgG, Baseline” value is reported as 710 and the “IgM, Baseline” value was determined as 182.
As for `Oc1c(-c2ccccc2)sc2sc3ccc(Cl)cc3[n+]12` [E], in data set [4] (75 mg/kg), the “% Change in weight (thymus gland)” value was -56% and the “Avg. weight of thymus gland” value worked out at 17.5 mg.
Take `Oc1c(-c2ccccc2)sc2sc3ccccc3[n+]12` [G]: in data set [4] (75 mg/kg), the “% Change in weight (thymus gland)” value is on record as -29% and the “Avg. weight of thymus gland” value is 28.0 mg.
On to `O=P1(N(CCCl)CCCl)NCCCO1` (stereo not drawn) [Cyclophosphamide, cyclophosphamide, reference compound], for which the “Mean % Inhibition of Paw Edema” value in data set [6] (6 hours after challenge) was 58%; in data set [6] (24 hours before challenge), 56%.
`[O-]c1c(-c2ccccc2)sc2sc3ccc(Cl)cc3[n+]12` [C]: in data set [3] (Day 4), the “IgG, mean (total number of plaques per spleen)” value is listed as 22,875 plaques per spleen and the “IgM, mean (total number of plaques per spleen)” value is 110,643 plaques per spleen. In data set [3] (Day 5), the “IgG, mean (total number of plaques per spleen)” value is listed as 117,337 plaques per spleen and the “IgM, mean (total number of plaques per spleen)” value is 55,518 plaques per spleen.
Turning to `[O-]c1c(-c2ccccc2)sc2sc3ccccc3[n+]12` [A], in data set [3] (Day 4), the “IgG, mean (total number of plaques per spleen)” value is recorded as 107,100 plaques per spleen and the “IgM, mean (total number of plaques per spleen)” value is given as 163,800 plaques per spleen. For the same compound, in data set [3] (Day 5), the “IgG, mean (total number of plaques per spleen)” value was 184,590 plaques per spleen and the “IgM, mean (total number of plaques per spleen)” value is 97,020 plaques per spleen. In addition, the “toxicity (printed in the thymus weight column)” value in data set [4] (200 mg/kg) is recorded as “toxic”. In data set [5], the “ANA (antinuclear antibody), 1st Reading” value was “neg”; the “IgG, 1st Reading” value was determined as 570; the “IgM, 1st Reading” value is listed as 176; the “IgG, % Change” value is on record as -15%. Moreover, the “IgM, % Change” value in data set [5] is recorded as “+21%”. In addition, in data set [5] (setting [7]), the “ANA (antinuclear antibody), Baseline” value is recorded as “neg”; the “IgG, Baseline” value is recorded as 674; the “IgM, Baseline” value is on record as 146.
With `[O-]c1c(-c2ccccc2)sc2sc3c([n+]12)CCCC3` [Example 11, 2-Phenyl-5,6,7,8-tetrahydrothiazolo[2,3-b]-benzothiazol-3(2H)-one mesoionic dedihydro derivative], in data set [4] (200 mg/kg), the “% Change in weight (thymus gland)” value is recorded as -58% and the “Avg. weight of thymus gland” value was 16.8 mg. In data set [5], the “ANA (antinuclear antibody), 1st Reading” value was “neg”; the “IgG, 1st Reading” value is listed as 356; the “IgM, 1st Reading” value stood at 134; the “IgG, % Change” value is given as -50%. Besides, in data set [5], the “IgM, % Change” value is -31%. Besides, in data set [5] (setting [7]), the “IgG, Baseline” value stood at 710 and the “IgM, Baseline” value turned out to be 194.
`CCOc1ccc2c(c1)sc1sc(-c3ccccc3)c(O)[n+]12` [F]: in data set [4] (150 mg/kg), the “% Change in weight (thymus gland)” value is recorded as -16% and the “Avg. weight of thymus gland” value is 33.3 mg.
